Measurements taken from ChEMBL document CHEMBL1201862, “PubChem BioAssay data set” (2004).
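Growth conditions: 96-well plates. Treatment: test compound, 48 hours, 5 concentrations. Analysis: linear interpolation between bracketing concentrations; unreached endpoints set to highest concentration. Here, GI50 denotes the concentration required for 50% inhibition of growth.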 Activity calls are given as the source filed them. Rule as the data show it: active = GI50 up to about 1.1 µM and inactive = higher.

What was measured:
Experiment in all cases: NCI-60 cell line screen, 48 h
[1] = system: BT-549
[2] = system: CAKI-1
[3] = system: HOP-92
[4] = system: MDA-MB-231
[5] = system: RXF 393
[6] = system: MOLT-4
[7] = system: OVCAR-5
[8] = system: HT-29
[9] = system: UACC-62
[10] = system: SF-268
[11] = system: 786-0
[12] = system: UO-31
[13] = system: MDA-MB-435
[14] = system: M14
[15] = system: T47D
[16] = system: SK-OV-3
[17] = system: OVCAR-4
[18] = system: SN12C
[19] = system: COLO 205
[20] = system: SNB-75
[21] = system: ACHN
[22] = system: SNB-19
[23] = system: NCI-H23
[24] = system: HCT-116
[25] = system: EKVX
[26] = system: PC-3
[27] = system: HL-60
[28] = system: UACC-257
[29] = system: IGROV-1
[30] = system: A498
[31] = system: Malme-3M
[32] = system: KM12
[33] = system: NCI-H226
[34] = system: MDA-N
[35] = system: SF-539
[36] = system: HCC 2998
[37] = system: MCF7
[38] = system: SK-MEL-5
[39] = system: HOP-62
[40] = system: SW-620
[41] = system: DU-145
[42] = system: Hs-578T
[43] = system: HCT-15
[44] = system: OVCAR-3
[45] = system: NCI/ADR-RES
[46] = system: SK-MEL-28
[47] = system: CCRF-CEM
[48] = system: U-251
[49] = system: OVCAR-8
[50] = system: NCI-H460
[51] = system: NCI-H522
[52] = system: LOX IMVI
[53] = system: K562
[54] = system: SR
[55] = system: TK-10
[56] = system: SF-295
[57] = system: SK-MEL-2
[58] = system: A549
[59] = system: RPMI-8226

With `CCCCCCCC/C=C\CCCCCCC/C=C1/C[C@](/C=C/C(=O)OC)(CO)OC1=O` the GI50 [1] was 5.02 µM (inactive), the GI50 [2] was 1.29 µM (inactive) and the GI50 [3] was 2.4 µM (inactive). For the same compound, the GI50 [4] was 3.99 µM (inactive), the GI50 [5] was 14.2 µM (inactive) and the GI50 [6] was 1.3 µM (inactive). For the same compound, the GI50 [7] was 7.46 µM (inactive), the GI50 [8] was 7.71 µM (inactive) and the GI50 [9] was 9.35 µM (inactive). For the same compound, the GI50 [10] was 6.9 µM (inactive), the GI50 [11] was 0.908 µM (active) and the GI50 [12] was 1.77 µM (inactive). The GI50 [13] was 0.904 µM (active), the GI50 [14] was 2.05 µM (inactive) and the GI50 [15] was 7.38 µM (inactive). The GI50 [16] was 10.9 µM (inactive), the GI50 [17] was 6.58 µM (inactive) and the GI50 [18] was 2.86 µM (inactive). The GI50 [19] was 1.57 µM (inactive), the GI50 [20] was 7.66 µM (inactive) and the GI50 [21] was 3.11 µM (inactive). For the same compound, the GI50 [22] was 7.16 µM (inactive), the GI50 [23] was 11.2 µM (inactive) and the GI50 [24] was 4.56 µM (inactive). For the same compound, the GI50 [25] was 9.73 µM (inactive), the GI50 [26] was 2.58 µM (inactive) and the GI50 [27] was 1.63 µM (inactive). For the same compound, the GI50 [28] was 15.6 µM (inactive), the GI50 [29] was 11.5 µM (inactive) and the GI50 [30] was 8.67 µM (inactive). The GI50 [31] was 2.15 µM (inactive), the GI50 [32] was 10.9 µM (inactive) and the GI50 [33] was 5.14 µM (inactive). The GI50 [34] was 0.773 µM (active), the GI50 [35] was 1.01 µM (active) and the GI50 [36] was 4.18 µM (inactive). The GI50 [37] was 7.41 µM (inactive), the GI50 [38] was 2.84 µM (inactive) and the GI50 [39] was 3.44 µM (inactive). The GI50 [40] was 2.66 µM (inactive), the GI50 [41] was 9.06 µM (inactive) and the GI50 [42] was 923 nM (active). The GI50 [43] was 8.41 µM, the GI50 [44] was 11.6 µM (inactive) and the GI50 [45] was 10.4 µM (inactive). The GI50 [46] was 2.77 µM (inactive), the GI50 [47] was 1.01 µM (active) and the GI50 [48] was 6.03 µM (inactive). For the same compound, the GI50 [49] was 6.65 µM (inactive), the GI50 [50] was 2.15 µM (inactive) and the GI50 [51] was 5.6 µM (inactive). For the same compound, the GI50 [52] was 1.6 µM (inactive), the GI50 [53] was 561 nM (active) and the GI50 [54] was 3.92 µM (inactive). For the same compound, the GI50 [55] was 2.68 µM (inactive), the GI50 [56] was 2.29 µM (inactive) and the GI50 [57] was 13.5 µM (inactive). The GI50 [58] was 2.37 µM (inactive).

With `C/C=C(/C)C(=O)O[C@H]1C(C)=C[C@]23C(=O)[C@@H](C=C(COC(C)=O)[C@@H](O)[C@]12O)[C@H]1[C@@H](C[C@H]3C)[C@@]1(C)OC(=O)/C(C)=C\C` the GI50 [1] was 2.38 µM (inactive), the GI50 [2] was 2.75 µM (inactive) and the GI50 [3] was 1.25 µM (inactive). For the same compound, the GI50 [4] was 3.03 µM (inactive), the GI50 [5] was 2.65 µM (inactive) and the GI50 [6] was 0.0449 µM (active). The GI50 [7] was 3.15 µM (inactive), the GI50 [8] was 0.411 µM (active) and the GI50 [9] was 2.37 µM (inactive). The GI50 [10] was 0.655 µM (active), the GI50 [11] was 1.52 µM (inactive) and the GI50 [12] was 0.442 µM (active). The GI50 [13] was 2.13 µM (inactive), the GI50 [14] was 2.29 µM (inactive) and the GI50 [15] was 1.22 µM (inactive). The GI50 [16] was 4.19 µM (inactive), the GI50 [17] was 2.77 µM (inactive) and the GI50 [18] was 1.69 µM (inactive). For the same compound, the GI50 [19] was 0.0596 µM (active), the GI50 [20] was 1.52 µM (inactive) and the GI50 [21] was 0.546 µM (active). For the same compound, the GI50 [22] was 3.01 µM (inactive), the GI50 [23] was 2.42 µM (inactive) and the GI50 [24] was 2.14 µM (inactive). The GI50 [25] was 2.9 µM (inactive), the GI50 [26] was 1.4 µM (inactive) and the GI50 [27] was 0.094 µM (active). For the same compound, the GI50 [28] was 3.63 µM (inactive), the GI50 [29] was 3.2 µM (inactive) and the GI50 [30] was 2.72 µM (inactive). The GI50 [31] was 0.111 µM (active), the GI50 [32] was 1.32 µM (inactive) and the GI50 [33] was 3.07 µM (inactive). The GI50 [34] was 1.17 µM (inactive), the GI50 [35] was 2.81 µM (inactive) and the GI50 [36] was 1.49 µM (inactive). The GI50 [37] was 2.35 µM (inactive), the GI50 [38] was 0.307 µM (active) and the GI50 [39] was 2.37 µM (inactive). For the same compound, the GI50 [40] was 2.55 µM (inactive), the GI50 [41] was 2.23 µM (inactive) and the GI50 [42] was 79.2 nM (active). For the same compound, the GI50 [43] was 2.96 µM, the GI50 [44] was 3.05 µM (inactive) and the GI50 [45] was 2.65 µM (inactive). The GI50 [46] was 3.69 µM (inactive), the GI50 [47] was 0.486 µM (active) and the GI50 [48] was 2.45 µM (inactive). The GI50 [49] was 3.72 µM (inactive), the GI50 [50] was 0.0244 µM (active) and the GI50 [51] was 1.8 µM (inactive). For the same compound, the GI50 [52] was 3.1 µM (inactive), the GI50 [53] was 20.5 nM (active) and the GI50 [54] was 2.67 µM (inactive). For the same compound, the GI50 [55] was 2.72 µM (inactive), the GI50 [56] was 1.08 µM (active) and the GI50 [57] was 3 µM (inactive). For the same compound, the GI50 [58] was 0.15 µM (active).

`COc1ccc(/C=N/n2cnc3[nH]c(C)c(Cc4ccccc4)c3c2=N)cc1` was tested, and the GI50 [1] was 75 µM (inactive), the GI50 [2] was > 100 µM (inactive) and the GI50 [3] was 29.2 µM (inactive). For the same compound, the GI50 [4] was 68.4 µM (inactive), the GI50 [5] was 19.2 µM (inactive) and the GI50 [6] was 52.1 µM (inactive). For the same compound, the GI50 [7] was > 100 µM (inactive), the GI50 [8] was > 100 µM (inactive) and the GI50 [9] was > 100 µM (inactive). The GI50 [10] was 72.9 µM (inactive), the GI50 [11] was > 100 µM (inactive) and the GI50 [12] was > 100 µM (inactive). The GI50 [13] was > 100 µM (inactive), the GI50 [14] was > 100 µM (inactive) and the GI50 [15] was 30.1 µM (inactive). For the same compound, the GI50 [16] was > 100 µM (inactive), the GI50 [17] was > 100 µM (inactive) and the GI50 [18] was 92 µM (inactive). For the same compound, the GI50 [19] was 75.9 µM (inactive), the GI50 [20] was 71.9 µM (inactive) and the GI50 [21] was 97.1 µM (inactive). For the same compound, the GI50 [22] was > 100 µM (inactive), the GI50 [23] was 53.1 µM (inactive) and the GI50 [24] was > 100 µM (inactive). For the same compound, the GI50 [25] was > 100 µM (inactive), the GI50 [26] was > 100 µM (inactive) and the GI50 [27] was > 100 µM (inactive). The GI50 [28] was > 100 µM (inactive), the GI50 [29] was 39.7 µM (inactive) and the GI50 [30] was 67.8 µM (inactive). The GI50 [31] was > 100 µM (inactive), the GI50 [32] was > 100 µM (inactive) and the GI50 [33] was > 100 µM (inactive). For the same compound, the GI50 [34] was > 100 µM (inactive), the GI50 [36] was > 100 µM (inactive) and the GI50 [37] was 39.1 µM (inactive). For the same compound, the GI50 [38] was > 100 µM (inactive), the GI50 [39] was > 100 µM (inactive) and the GI50 [40] was 57.1 µM (inactive). The GI50 [41] was > 100 µM (inactive), the GI50 [42] was 80900 nM (inactive) and the GI50 [43] was > 100 µM. The GI50 [44] was > 100 µM (inactive), the GI50 [45] was > 100 µM (inactive) and the GI50 [59] was 34.8 µM (inactive). For the same compound, the GI50 [46] was > 100 µM (inactive), the GI50 [47] was 54.3 µM (inactive) and the GI50 [48] was 86.1 µM (inactive). For the same compound, the GI50 [49] was 90.6 µM (inactive), the GI50 [50] was 81.7 µM (inactive) and the GI50 [51] was 65 µM (inactive). The GI50 [54] was > 100 µM (inactive), the GI50 [55] was > 100 µM (inactive) and the GI50 [56] was 53.3 µM (inactive). For the same compound, the GI50 [57] was > 100 µM (inactive) and the GI50 [58] was 89.5 µM (inactive).
